One block for each molecule: values may come before it.
Tests used:
Dvl2/3 phosphorylation = assay: Western blot for biochemical markers of Wnt signaling in Hela cells: Dvl2/3 phosphorylation; format: cell-based; settings: incubated 24 h, Western blot (FIG. 2)
Source text: (§1) Cell lysates were then subjected to Western blot analysis for biochemical markers of Wnt signaling (LRP6 and Dvl2/3 phosphorylation).
(§2) Dishevelled (Dvl) phosphorylation is associated with both canonical and non-canonical Wnt signaling pathways.

LRP6 phosphorylation = assay: Western blot for biochemical markers of Wnt signaling in Hela cells: LRP6 phosphorylation; format: cell-based; settings: incubated 24 h, Western blot (FIG. 2)
Source text: as §1, §2

[1] = system: Wnt/b-catenin pathway activity in L-Wnt-STF cells; assay: Suppression of Wnt signaling in L-Wnt-STF cells (Firefly luciferase reporter); format: cell-based
Experimental: Chemical synthesis is described below in Example 3. L-Wnt-STF cells (Chen, et al., 2009) were seeded into each well of a white opaque 96-well plate and compounds added immediately thereafter. Luciferase activities (Firefly luciferase for Wnt/b-catenin pathway activity and Renilla luciferase activity as an irrelevant cell signal) were measured using a previously reported protocol (Wang, et al., 2013).
Additional IWPs to suppress Wnt signaling in L-Wnt-STF cells were synthesized and tested for their ability to suppress Wnt signaling as described above. The relevant data for some of the compounds are shown below in Table 1.

Axin2 expression = settings: DLD-1 cells, exposure for 2 h; cited from earlier work

Structure (SMILES): O=C(Cn1nnc(-c2ccncc2)c1-c1ccccc1)Nc1ccc(-c2ccccc2)cn1 [IWP-O1, 2-(5-Phenyl-4-(pyridin-4-yl)-1H-1,2,3-triazol-1-yl)-N-(5-phenylpyridin-2-yl)acetamide]
phosphorylation of Dvl2/3 (Dvl2/3 phosphorylation): effectively suppressed | phosphorylation of LRP6 (LRP6 phosphorylation): suppressed

Structure (SMILES): Cc1cc(-c2ncc(CC(=O)Nc3ccc(-c4cnccn4)cn3)cc2C)ccn1 [LGK974, reference compound]
EC50 ([1]; Table 1 triazole substituent screening, L-Wnt-STF cells, normalized to LGK974 control): 200 pM

Structure (SMILES): O=C(Nc1cccc2cccnc12)c1ccc(N2C(=O)[C@@H]3[C@H](C2=O)[C@@H]2C=C[C@H]3C2)cc1 [IWR-1]
expression of Axin2 (Axin2 expression): decrease

EC50 ([1]; alternative substitution pattern of the triazole): 100 pM
Structure (SMILES): Cc1cc(-n2nnc(CC(=O)Nc3ccc(-c4ccccc4)cn3)c2-c2ccccc2)ccn1
